Data reported in patent US9901591B2, “Paeoniflorin preparations and uses thereof for fat reduction” (priority 2008, dated 2018).

Legend:
intracellular cyclic AMP = assay: Intracellular cyclic AMP by ELISA in 3T3-L1 adipocytes; type: cell-based, mouse; details: PF, vs control
Procedure: 3T3-L1 adipocytes were cultured in medium containing […] PF as test group and medium only as control. Cells were lysed by adding 0.1 N HCL, and intracellular cyclic AMP was measured by ELISA.

[1] = system: Hormone sensitive lipase (HSL); assay: Semi-quantitative RT-PCR of HSL expression in 3T3-L1 adipocytes; type: cell-based, mouse; details: 1 mol/L PF, from the third day after exposure
Procedure: 3T3-L1 adipocytes were cultured in medium containing […] PF as a test group and medium only as the control group. Total RNA was extracted and reverse transcribed to cDNA employing conventional methods known to those of skill in the art. Primers used for polymerase chain reaction (PCR) amplification of mouse HSL primers were selected based on published sequence (NM_010719) (expected PCR fragment: 409 bp): For semi-quantitative analysis, the amplification cycles were chosen within the linear range (HSL: 24 cycles with […] at 58° C., GAPDH: 21 cycles with […] at 58° C.).

Carboxypeptidase E (Cpe) = assay: Oligo GEArray microarray of obesity-related genes in 3T3-L1 adipocytes; type: cell-based, mouse; details: for Ratio of expression signals of Cpe compared to control: 1 umol/L PF, control = 1
Procedure: 3T3-L1 adipocytes were cultured in medium containing 1 umol/L PF as test group and medium only as control. Total RNA was extracted and Oligo GEArray was tested using Superarray OMM-17. The GEArray includes 111 obesity-related genes that are directly involved in the regulation of energy intake and expenditure. The genes included orexigenic peptides, hormones, and receptors, anorectic peptides, hormones, receptors, and central and peripheral signaling molecules involved in energy expenditure. The increase changes or decrease changes of more than 1.5 fold are regarded meaningful according to the diagnosis discipline, as described in the insert literature of a metabolic disease/obesity gene panel product purchased from Superarray Bioscience Corporation. (Frederick, Md.).
In the graphs, the data above the upper line and the data below the lower line show a significant change of gene expression.

[2] = human, in vivo
Procedure: For Regular Injections: After sterilization of the surface area with 74% ethanol, topical application of lignocaine ointment or lidocaine gel was applied for 5 minutes to numb the skin where the injections are to take place.
For Booster Injection: The patient is prepared using 1 ml of 2% lidocaine to anaesthetize the site of entry of the large needle. This way, the procedure is almost painless. 3-5 minutes later, the booster injection is given slowly over a 3 minute period.
Patients are forewarned that bruising may occur due to the injections. Thus, some bruising in a patient may be expected. […] The bruising, usually disappears within 1 week. In addition, redness and tenderness at the injection site of the booster, is very common. Redness lasts for a couple of hours and the tenderness lasts for a couple of days. Bruising, is encountered more with the booster than the regular injections, but also disappears within a week or so. Another observation is fatigue as a result of treatment in some patients. […] In addition, a very slight rise in temperature, to about 37.1 or 37.2 for a few hours, was noted.

[3] = Blood indices before and after PF treatment in patients; type: in vivo, human; details: before vs after treatment with PF
[4] = Targeted fat reduction with injectable PF preparation in patients; type: in vivo, human; details: alternative protocol, 20 small (0.1 to 0.2 ml) injections per session, 5 sessions

For `C[C@@]12C[C@@]3(O)O[C@@H](O1)[C@]1(COC(=O)c4ccccc4)[C@H]3C[C@@]12O[C@@H]1O[C@H](CO)[C@@H](O)[C@H](O)[C@H]1O` [PF, paeoniflorin], the “intracellular cAMP” value (intracellular cyclic AMP; first day / 24 hours) was “significantly increased”, the “intracellular cAMP” value (intracellular cyclic AMP; third day / 72 hours) was “significantly increased” and the “expression of HSL” value [1] was “increased the expression of HSL”. For the same compound, the “Ratio of expression signals of Cpe compared to control” value (from here on “Ratio of expression signals of Cpe”) (Carboxypeptidase E (Cpe); 3 days) was 0.79, the “Ratio of expression signals of Cpe” value (Carboxypeptidase E (Cpe); 6 days) was 1.04 and the “Ratio of expression signals of Cpe” value (Carboxypeptidase E (Cpe); 7 days) was 2.67. The “increase of Cpe expression compared to the control” value (Carboxypeptidase E (Cpe); day 7 of exposure to PF) was 2.67 fold, the bruising [2] was “bruising was observed” and the diarrhea [2] was “No diarrhea was observed”. For the same compound, the dizziness [2] was “observed in a few patients”, the fatigue [2] was “Two patients suffered from fatigue” and the “redness and tenderness at the injection site” value [2] was “very common”. The rise in temperature [2] was “about 37.1 or 37.2”, the stool [2] was “softer stool was reported” and the “time until bruising disappears” value [2] was no more than 1 week. For the same compound, the blood sugar levels [3] was “decreased upon treatment” and the measurable fat loss [4] was 3 cm.
